The test system of data set [1] is ovary adenocarcinoma line SKOV-3 (ATCC HTB77). Put plainly: XTT proliferation test (cellular dehydrogenase activity), SKOV-3. In kind it is cell-based. To be noted: Homo sapiens, SK-OV-3, in-vitro cytotoxicity, values determined from 5 substance concentrations, 45 h incubation. How it is done:
(§1) In a proliferation test, the antiproliferative activity of the substance D-43411 was examined using established tumor cell lines. The Cellular Dehydrogenation activity is determined in the test, which enables determination of the vitality of the cell and, indirectly, the cell count. The cell lines used are the human cervical carcinoma cell lines KB/HeLa (ATCC/CCL17), the murine lymphocyte leukemia L1210 (ATCC CCL-219), the human breast adenocarcinoma line MCF7/ATCC HTB22) and the ovary adenocarcinoma line SKOV-3 (ATCC HTB77). These are established cell lines which are very well characterized and were obtained from ATCC and cultured. XTT Test for Cellular Dehydrogenase Activity The adherently growing tumor cell lines HeLa/KB, SKOV-3 and MCF7 and the L1210 leukemia line, which grows in suspension, were cultivated under standard conditions in an incubator with gas inlet at 37° C., 5% CO2 and 95% atmospheric humidity. On Test Day 1, the adherent cells are detached using trypsine/EDTA and pelleted by centrifugation. […] The cell plates are then incubated in the incubator with gas inlet for a further 3 hours, and the optical density (OD490nm) is determined in a photometer. Using the OD490nm obtained, the inhibition is calculated in percent relative to the control. […]
For orientation: Tetrazolium assays rely on reduction of a dye to a coloured formazan, in cell work by metabolically active cells.

Data set [2] relates to human cervical carcinoma cell lines KB/HeLa (ATCC/CCL17). Briefly: XTT proliferation test (cellular dehydrogenase activity), KB/HeLa. In kind it is cell-based. To be noted: in-vitro cytotoxicity, values determined from 5 substance concentrations, 45 h incubation. How it is done:
as §1

For data set [3], the system named is murine lymphocyte leukemia L1210 (ATCC CCL-219). Briefly: XTT proliferation test (cellular dehydrogenase activity), L1210. Format: cell-based. To be noted: Mus musculus, in-vitro cytotoxicity, values determined from 5 substance concentrations, 45 h incubation. How it is done:
as §1

For data set [4], the system named is human breast adenocarcinoma line MCF7 (ATCC HTB22). Put plainly: XTT proliferation test (cellular dehydrogenase activity), MCF7. In kind it is cell-based. The following applies: test period of 48 h. As to the method:
as §1

One may read the IC50 as the concentration at which inhibition is half-maximal. Low readings indicate greater potency in that assay, high ones weaker potency in that assay. What is called melting point is the temperature of the solid-liquid transition. Broadly, the inhibition is the share of the control response that was lost under treatment. A low value points to little suppression.

Molecule `COc1cc(OC)cc(N2CCN(C(=O)c3c4ccccc4nc4ccccc34)CC2)c1` [D-43411, 1-(3,5-Dimethoxyphenyl)-4-(9-acridinyl-carbonyl)piperazine] registered a melting point of 172 to 175 °C. This molecule yielded an IC50 in data set [1] below 0.3 ng/mL. In data set [2], this molecule showed an IC50 below 0.3 ng/mL. In data set [3], this molecule showed an IC50 below 0.3 ng/mL. Besides, in data set [4] (at 3.16 mg/ml), 3160 µg/mL produced 18% inhibition. Further, the IC50 in data set [4] (in-vitro cytotoxicity, values determined from 5 substance concentrations) is above 3160 ng/mL.

For the origin of these results see patent US6706722B2, “Heteroaryl derivatives and their use as medicaments” (Zentaris AG, priority 2000, dated 2004).
